# Experimental data published in patent publication US8076457B2, “Crystal of a cytochrome-ligand complex and methods of use” (The Scripps Research Institute, priority 2005, dated 2011).
# Key:
# CYP2A6dH [1] = target: T1, CYP2A6dH (Homo sapiens, UniProt P11509, Q458E); assay: coumarin 7-hydroxylation by purified CYP2A6dH reconstituted with P450 reductase; type: biochemical
# T1 construct: expressing residues 29-494 of the catalytic domain without internal modifications; 4xHis (C); made in house; host or cells: Escherichia coli
# T1 sequence (P11509 with tags, fused parts or gaps Q458E): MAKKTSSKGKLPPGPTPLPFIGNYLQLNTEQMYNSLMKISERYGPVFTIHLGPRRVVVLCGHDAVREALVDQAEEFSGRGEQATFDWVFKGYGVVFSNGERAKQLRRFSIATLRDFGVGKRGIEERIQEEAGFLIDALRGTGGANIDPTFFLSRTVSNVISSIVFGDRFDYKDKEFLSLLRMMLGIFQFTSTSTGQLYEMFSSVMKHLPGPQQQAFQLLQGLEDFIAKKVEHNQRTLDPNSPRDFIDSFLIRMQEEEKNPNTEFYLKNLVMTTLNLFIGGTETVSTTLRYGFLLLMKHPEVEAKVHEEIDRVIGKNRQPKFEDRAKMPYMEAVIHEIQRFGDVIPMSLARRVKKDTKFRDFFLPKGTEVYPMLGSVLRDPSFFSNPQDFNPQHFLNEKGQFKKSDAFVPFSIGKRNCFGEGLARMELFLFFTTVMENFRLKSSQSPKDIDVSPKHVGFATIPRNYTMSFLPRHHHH
# Source text: In this example, to determine catalytic properties for the purified protein, CYP2A6dH was reconstituted with E. coli-expressed purified human reductase in the absence of L-α-dilauroyl-L-α-lecithin with slight modifications to the protocol described by Tan et al. (Competitive interactions between CYP2A6 and cytochrome P450 2E1 for NADPH-cytochrome P450 oxidoreductase in the microsomal membranes produced by a baculovirus expression system. Arch. Biochem. Biophys. 342, 82-91 (1997)). 10 pmol CYP2A6dH was incubated on ice for 10 min. with 0.06 U human reductase at a ratio of 1:6, CYP2A6dH to reductase in a final volume of 10 μl. 1.2 benzopyrone at concentrations ranging from 25 μM to 2.5 mM were then added in […] aliquots, along with 430 μL of 50 mM Tris pH 7.4. The reaction mixture was allowed to equilibrate at 37° C. for 3 min. To start the reaction, 50 μl of an NADPH regeneration system (50 mM isocitrate, 50 mM MgCl2, 5 U/ml isocitrate dehydrogenase and 10 mM NADPH) was added. The reaction was allowed to proceed for 5 min., and stopped by addition of 100 μl of cold 20% trichloroacetic acid. The components were centrifuged at 13,000 rpm. 10 μl of the supernatant was removed and added to 190 μl 100 mM Tris buffer, pH 9.0. the coumarin content was quantified fluorometrically (excitation at 368 nm and emission at 453 nm).
# [2] = target: T2, full length wild-type CYP2A6 (Homo sapiens, UniProt P11509); details: microsomal preparations from a panel of 12 human liver microsomes, cited from earlier work
# T2 construct: for full length wild-type CYP2A6 in microsomal preparations; host or cells: human liver microsomes (panel of 12)
# T2 sequence (P11509 1-494): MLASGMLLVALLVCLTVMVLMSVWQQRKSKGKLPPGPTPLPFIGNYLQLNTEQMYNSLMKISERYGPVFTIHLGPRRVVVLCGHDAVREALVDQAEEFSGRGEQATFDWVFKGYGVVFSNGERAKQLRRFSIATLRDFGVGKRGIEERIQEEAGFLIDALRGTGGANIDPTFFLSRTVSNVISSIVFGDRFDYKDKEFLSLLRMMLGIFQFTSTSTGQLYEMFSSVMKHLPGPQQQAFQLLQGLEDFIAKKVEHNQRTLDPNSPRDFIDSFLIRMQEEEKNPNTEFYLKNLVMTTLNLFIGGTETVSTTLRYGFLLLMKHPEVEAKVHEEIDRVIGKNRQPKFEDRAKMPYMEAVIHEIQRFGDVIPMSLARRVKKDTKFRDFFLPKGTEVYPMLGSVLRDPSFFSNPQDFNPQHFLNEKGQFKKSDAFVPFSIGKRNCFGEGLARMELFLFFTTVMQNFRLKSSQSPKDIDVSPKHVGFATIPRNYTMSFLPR
# CYP2A6dH [3] = target: T1, CYP2A6dH; assay: binding constants by visible difference spectroscopy (low spin to high spin conversion); details: for spectral change on binding to the purified enzyme: spectral titration, UV-visible
# Procedure: Purified CYP2A6dH was diluted to ˜3 μM in 50 mM KPi pH 7.4, 500 mM NaCl, 20% glycerol, 1 mM EDTA (referred to as XB) in a 1-cm path length microcuvette. […] The total concentration of methanol remained under 1%. Binding was monitored as the absorbance difference, ΔA, between the peak (˜385 nm) and trough (˜417 nm) of the difference spectrum. The apparent binding constant, Ks, and the extrapolated maximum spectral change, ΔAmax, were estimated from nonlinear least-squares regression fitting using the following equation:
# [formula] where S is the total concentration of ligand and P is the total concentration of P450.
SMILES,Km (CYP2A6dH [1]),Vmax for coumarin 7-hydroxylation (CYP2A6dH [1]),Vmax of coumarin hydroxylation (mean value) [2],Km ([2]; read-out: Km of coumarin hydroxylation (mean value)),spectral change on binding to the purified enzyme (CYP2A6dH [3]),"Kd (CYP2A6dH [3]; substrate dependent conversion to high spin ferric heme protein, read-out: Dissociation constant for binding to purified CYP2A6dH)"
"O=c1ccc2ccccc2o1 [coumarin, 1,2-benzopyrone]",0.23 ± 0.03 µM,10.83±1.38 nmols/min/nmol P450,6.34 nmols/min/nmol P450,0.4 µM,type I spectral change,270 nM
"COc1c2occc2cc2ccc(=O)oc12 [methoxsalen, 8-methoxypsoralen]",–,–,–,–,type I spectral change,–
